Measurements taken from patent publication US10017487B2, “Fused heterocyclic compound” (Takeda Pharmaceutical Company Limited, priority 2015, dated 2018).
Counter-ions that a name gives are not always drawn.

What was measured:
[1] = target: T1, Human recombinant enteropeptidase (Homo sapiens, UniProt P98073); assay: Human enteropeptidase inhibitory activity; format: biochemical; details: 3.3 μM test compound; fluorescence intensity at 2 hours after start of reaction; read-out: Inhibition rate at 3.3 μM
T1 construct: purchased ITSI-Biosciences LLC #REN-260
T1 sequence (P98073 whole entry): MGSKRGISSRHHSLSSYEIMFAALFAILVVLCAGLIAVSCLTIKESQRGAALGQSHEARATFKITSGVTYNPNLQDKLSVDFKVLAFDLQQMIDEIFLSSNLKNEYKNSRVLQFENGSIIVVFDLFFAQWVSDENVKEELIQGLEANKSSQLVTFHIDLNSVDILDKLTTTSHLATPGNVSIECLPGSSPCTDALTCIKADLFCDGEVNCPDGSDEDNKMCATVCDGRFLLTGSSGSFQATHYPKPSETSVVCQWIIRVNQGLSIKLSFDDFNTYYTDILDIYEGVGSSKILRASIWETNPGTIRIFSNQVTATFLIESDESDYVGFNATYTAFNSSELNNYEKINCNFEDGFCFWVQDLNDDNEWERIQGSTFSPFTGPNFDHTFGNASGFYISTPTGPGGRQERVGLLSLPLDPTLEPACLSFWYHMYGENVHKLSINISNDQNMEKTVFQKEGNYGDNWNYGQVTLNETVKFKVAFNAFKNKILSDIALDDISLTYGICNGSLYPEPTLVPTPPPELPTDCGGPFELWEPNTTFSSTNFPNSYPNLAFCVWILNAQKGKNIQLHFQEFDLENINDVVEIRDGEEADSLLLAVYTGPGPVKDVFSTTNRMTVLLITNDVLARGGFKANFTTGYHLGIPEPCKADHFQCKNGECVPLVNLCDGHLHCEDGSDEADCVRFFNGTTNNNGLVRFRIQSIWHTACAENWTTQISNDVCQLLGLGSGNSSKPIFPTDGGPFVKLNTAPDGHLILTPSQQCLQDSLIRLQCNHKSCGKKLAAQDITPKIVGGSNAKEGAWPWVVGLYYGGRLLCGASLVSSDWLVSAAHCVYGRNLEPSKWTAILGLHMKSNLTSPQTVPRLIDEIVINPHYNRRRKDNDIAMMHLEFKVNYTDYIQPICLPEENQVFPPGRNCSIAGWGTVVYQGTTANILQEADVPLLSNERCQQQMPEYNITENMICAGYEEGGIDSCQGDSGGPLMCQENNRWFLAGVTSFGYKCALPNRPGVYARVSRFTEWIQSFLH
Experimental: Human recombinant enteropeptidase (#REN-260, ITSI-Biosciences LLC) was diluted with an assay buffer (50 mM Tricine, pH 8.0, 0.01 (w/v) %, Tween 20, 10 mM CaCl2) to prepare a 24 mU/mL enzyme solution. Subsequently, 5FAM-Abu-Gly-Asp-Asp-Asp-Lys-Ile-Val-Gly-Gly-Lys(CPQ2)-Lys-Lys-NH2 (purity: 97.2%, CPC Scientific Inc., SEQ ID NO: 1) was diluted with the assay buffer to prepare a 2.1 μM substrate solution. A test compound is dissolved in DMSO into a 1 mM solution, and the solution was diluted by 100-fold with the assay buffer to give a compound solution. To a 384-well black plate (#784076, Greiner Bio-One), 5 μL of the compound solution and 5 μL of the substrate solution were added and mixed, and 5 μL of the enzyme solution was then added to the mixture, followed by mixing to start the reaction. The fluorescence intensity was measured with a fluorescence plate reader EnVision (The Perkin-Elmer Corp.) at an excitation wavelength of 485 nm and a fluorescence wavelength of 535 nm. The same reaction as above except that the test compound was not contained was performed (test compound non-addition group). Furthermore, the same reaction as above except that the test compound and the enzyme were not contained was performed (control group). The inhibition rate was calculated using the fluorescence intensity at 2 hours after the start of the reaction by the following expression: Inhibition rate (%)=(1-((fluorescence intensity of test compound addition group)−(fluorescence intensity of control group))/((fluorescence intensity of test compound non-addition group)−(fluorescence intensity of control group)))×100

HFD-fed mouse = assay: Fecal protein concentration-increasing test using HFD-fed mouse; format: in vivo; details: HFD-fed mice, 10 mg/kg oral, whole feces of first day of administration, group average
Experimental: High fat diet-fed (HFD-fed) mice (D12079B diet, male, 19-week old) were orally administered with a 0.5% methyl cellulose suspension containing a test compound (10 mg/kg) (compound administration group, six mice per group) or a 0.5% methyl cellulose suspension (compound non-administration group (vehicle), five mice per group), and whole feces were collected on the first day of administration. Dried feces were dissolved in 0.5 N NaOH, followed by centrifugation at 12,000 rpm. The protein concentration in the supernatant was then quantitatively measured (Lowry method), and the amount of protein contained in 1 g of feces was calculated as the fecal protein concentration (mg/g feces). The average of each group is shown below.

DIO mouse = assay: Anti-obesity effect test using DIO mouse; format: in vivo; details: DIO mice, group average
Experimental: Diet-induced obesity (DIO) mice (D12079B diet, male, 32-week old) were orally administered with a 0.5% methyl cellulose suspension containing a test compound (30 mg/kg) (compound administration group, six mice per group) or a 0.5% methyl cellulose suspension (compound non-administration group (vehicle), six mice per group) once a day for eight days. The averages of the body weights at the start of administration and after continuous administration for eight days are shown below.

Row | Structure (SMILES) | inhibition at 3.3 µM [1] [%] | Fecal protein concentration (HFD-fed mouse) [mg/g feces] | Body weight (g) After continuous administration for 8 days (DIO mouse; 30 mg/kg oral once a day for eight days) [g] | Body weight (g) At start of administration (DIO mouse; 30 mg/kg oral once a day, baseline) [g]
1 | CC1(C)Cc2c(cc(OC(=O)c3ccc(NC(=N)N)cc3)cc2C2=NOC(CC(=O)O)(C(=O)O)C2)O1 (stereo not drawn) [Example 5, 3-(6-((4-carbamimidamindobenzoyl)oxy)-2,2-dimethyl-2,3-dihydro-1-benzofuran-4-yl)-5-(carboxymethyl)-4,5-dihydro-1,2-oxazole-5-carboxylic acid] | 100 |  |  | 
2 | N=C(N)Nc1ccc(C(=O)Oc2cc3c(c(C(=O)NCS(=O)(=O)O)c2)CCO3)cc1 [Example 3, (((6-((4-carbamimidamindobenzoyl)oxy)-2,3-dihydro-1-benzofuran-4-yl)carbonyl)amino)methanesulfonic acid] | 101 |  |  | 
3 | N=C(N)Nc1ccc(C(=O)Oc2cc3c(c(C(=O)NCCS(=O)(=O)O)c2)CCO3)cc1 [Example 1, 2-(((6-((4-Carbamimidamidobenzoyl)oxy)-2,3-dihydro-1-benzofuran-4-yl)carbonyl)amino)ethanesulfonic acid] | 101 | 188.8 | 42.8 | 43.5

The next lines start with results.

Row | inhibition at 3.3 µM [1] [%] | Structure (SMILES) | Fecal protein concentration (HFD-fed mouse) [mg/g feces] | Body weight (g) After continuous administration for 8 days (DIO mouse; 30 mg/kg oral once a day for eight days) [g] | Body weight (g) At start of administration (DIO mouse; 30 mg/kg oral once a day, baseline) [g]
4 | 101 | N=C(N)Nc1ccc(C(=O)Oc2cc3c(c(C(=O)NCP(=O)(O)O)c2)CCO3)cc1 [Example 4, ((((6-((4-Carbamimidamidobenzoyl)oxy)-2,3-dihydro-1-benzofuran-4-yl)carbonyl)amino)methyl)phosphonic acid hydrochloride] |  |  | 
5 | 101 | N=C(N)Nc1ccc(C(=O)Oc2cc3c(c(C(=O)NCCCS(=O)(=O)O)c2)CCO3)cc1 [Example 2, 3-(((6-((4-carbamimidamindobenzoyl)oxy)-2,3-dihydro-1-benzofuran-4-yl)carbonyl)amino)propane-1-sulfonic acid] |  |  | 
6 | 101 | N=C(N)Nc1ccc(C(=O)Oc2cc3c(c(C4=NOC(CC(=O)O)(C(=O)O)C4)c2)CCO3)cc1 (stereo not drawn) [Example 6, 3-(6-((4-Carbamimidamidobenzoyl)oxy)-2,3-dihydro-1-benzofuran-4-yl)-5-(carboxymethyl)-4,5-dihydro-1,2-oxazole-5-carboxylic acid] |  |  | 
